Assay results published in patent US20080311126A1, “Antisense Oligonucleotides Directed to Ribonucleotide Reducatase R2 and Uses Thereof in Combination Therapies for the Treatment of Cancer” (Genesense Technologies, Inc, priority 2004, published 2008).
Entries after “also recorded” stand apart in the source; their conditions may differ.

What was measured:
Format in all cases: in vivo
[1] = system: Human Pancreatic Adenocarcinoma; test: Tumour growth assay, human pancreatic adenocarcinoma in mice
[2] = system: Human Melanoma; test: Tumour growth assay, human melanoma in mice
[3] = system: Human Lung Carcinoma; test: Tumour growth assay, human lung carcinoma in CD-1 Nude mice
[4] = system: Human Breast Adenocarcinoma; test: Tumour growth assay, human breast adenocarcinoma in mice
[5] = system: A498 human renal carcinoma; test: A498 renal tumour xenograft in SCID mice, SEQ ID NO:1 and interferon alpha
Method: Cell line: Human renal carcinoma cell line (A498) was grown as monolayer culture in Minimum essential medium (α-MEM) supplemented with 10% fetal bovine serum (FBS), 0.1 mM non-essential amino acid, 1.0 mM sodium pyruvate, 100 U/ml penicillin, 100 μg/ml streptomycin and 0.25 μg/ml amphotericin B and 2 mM L-alanyl-1-glutamine at 37° C. in an atmosphere of 5% CO2 in air. The tumour cells were routinely subcultured twice weekly by trypsin-EDTA treatment. The cells were harvested from subconfluent logarithmically growing culture by treatment with trypsin-EDTA and counted for tumour inoculation.
Tumour Inoculation: An acclimation period of at least 7 days was allowed between animal receipt and commencement of tumour inoculation. When the female SCID mice were 6-7 weeks of age (20-25 g), each mouse was subcutaneously injected with 9×10^6 A498 human renal carcinoma cells in 0.1 ml of PBS at the right flank of the mice to induce tumour growth.
Dose Preparation and Treatment: The dose for SEQ ID NO:1 was formulated using the following procedure. From a concentrated stock solution (usually prepared in ddH2O at a concentration of 50 mg/ml and kept at −80° C.), SEQ ID NO:1 was diluted with saline to achieve a final target concentration of 1 or 2.5 mg/ml on the first day of dosing. Enough SEQ ID NO:1 was diluted so that the compound could be administered by bolus infusion into the tail vein every other day for the duration of the experiment. Recombinant interferon alfa-2b (ntron A™) was employed according to the dose and treatment schedules below. The treatments were started 20 days after the tumour cell inoculation when the tumour size reached an approximate volume of 200 mm^3. Each treatment group contained 10 tumour-bearing mice. Routes of administration are as follows: intravenous (i.v.) and intratumoural (i.t.).
• 1. Saline treated group-1: saline 0.1 ml/mouse/48 hours, i.v., n=10 • 2. Saline treated group-2: saline 0.05 ml/mouse/5 days/week, i.t., n=10 • 3. SEQ ID NO:1 treated group: 1 mg/kg/48 hours in 0.1 ml saline, i.v. n=10 • 4. SEQ ID NO:1 treated group: 2.5 mg/kg/48 hours in 0.1 ml saline, i.v., n=10 • 5. […]
Treatment started from day 20 after inoculation of human renal tumour cells. […]
Endpoints: The effects of SEQ ID NO:1 and Intron A on tumour growth was determined. Tumour sizes were measured every week from day 20 after the tumour cell inoculation in two dimensions using a caliper, and the volume was expressed in mm^3 using the formula: V=0.5 a×b^2, where a and b are the long and short diameters of the tumour, respectively. Mean tumour volumes calculated from each measurement were then plotted in a standard graph to compare the anti-tumour efficacy to that of controls. A day after the last treatment, tumours were excised from the animals and their weights were measured. […]

[6] = system: Hela S3 human cervix epitheloid carcinoma cells; test: Hela S3 hydroxyurea resistant cervix carcinoma xenograft in SCID mice
Method: Hela S3 human cervix epitheloid carcinoma cells (5×10^5 cells in 100 μl of PBS) were subcutaneously injected into the right flank of 6-7 weeks old female SCID mice. Hela S3 is a hydroxyurea resistant cell line. After the size of tumour reached an approximate volume of 100 mm^3, 3 days post tumour cell injection, SEQ ID NO:1 was administered by bolus infusion into the tail vein every other day at 10 mg/kg 6 times. Control animals received saline alone for the same period. Antitumour effect of SEQ ID NO:1 was further compared to that of Hydroxyurea or Cisplatin alone or in combination. Hydroxyurea was administered intraperitoneally every day at a dose of 250 mg/kg for 10 days. Cisplatin was administered intravenously once a week for three weeks at a dose of 4 mg/kg. Antitumour activities were estimated by the inhibition of tumour volume, which was measured with caliper. Each point represents mean tumour volume calculated from 10 animals per experimental group. […] As expected, treatment with Hydroxyurea during the same period was ineffective against Hydroxyurea-resistant tumour.

[7] = system: A2058 human melanoma cells; test: A2058 melanoma xenograft in CD-1 nude mice
Method: A2058 human melanoma cells 1×10^7 cells in 100 μl of PBS) were subcutaneously injected into the right flank of 6-7 week old female CD-1 nude mice. A2058 is a metastatic melanoma cell line. After the size of tumour reached an approximate volume of 100 mm^3, 6 days post tumour cell injection, SEQ ID NO:1 was administered by bolus infusion into the tail vein every other day at 10 mg/kg. Control animals received saline alone for the same period. Antitumour effect of SEQ ID NO:1 was further compared to that of dacarbazine (DTIC) alone or that of SEQ ID NO:1 in combination with DTIC. DTIC was administered intravenously for 5 days in a row from day 6-10 at a dose of 80 mg/kg in 100 μl saline. All treatments were stopped at day 24. A day after the last treatment, tumours were excised from the animals and their weights were measured.

## GGCTAAATCGCTCCACCAAG (chemistry not given here) [SEQ ID NO: 1, antisense oligonucleotide that hybridizes to the coding region of human ribonucleotide reductase R2 mRNA]
[1]; Human Pancreatic Adenocarcinoma
  Inhibition of tumour weight: approximately 65%
[1]; up to 39 days after tumour implantation
  inhibition of tumour growth: Complete inhibition of tumour growth
[2]
  Inhibition of tumour weight: approximately 80%
[3]; CD-1 Nude mice, Days 14 to 19 after tumour implantation
  Inhibition of tumour size: approximately 85% in CD-1 Nude mice
[3]; Human Lung Carcinoma
  Inhibition of tumour weight: approximately 70%
[4]; Day 31 after tumour implantation
  Inhibition of tumour weight: approximately 80% on Day 31 after
[4]; Human Breast Adenocarcinoma
  Inhibition of tumour size: approximately 80%
[5]; Example 6, SEQ ID NO:1 1 or 2.5 mg/kg/48 hours i.v., Intron A 10^3 or 10^5 unit 5 days/week i.t.
  anti-tumour efficacy (tumour volume, tumour weight): significant anti-tumour efficacy
[5]; Example 7, SEQ ID NO:1 2.5 mg/kg/2ds i.v., 10000 units Intron A x5/week for 2 weeks i.t.
  anti-tumour efficacy (tumour volume, tumour weight): significant anti-tumour efficacy
[6]; Hela S3 (cervix), hydroxyurea resistance, SCID
  Tumour weight as % of saline control: 24%
[6]; SEQ ID NO:1 10 mg/kg 6 times, Hydroxyurea 250 mg/kg i.p. 10 days, Cisplatin 4 mg/kg i.v. weekly
  antitumour effect (tumour volume): significant delay of tumour growth; also recorded: superior to the inhibitory effects observed with Cisplatin alone
[7]; A2058 (melanoma), Mouse CD-1
  Tumour weight as % of saline control: 20%
[7]; SEQ ID NO:1 10 mg/kg every other day i.v., DTIC 80 mg/kg i.v. 5 days
  antitumour effect (tumour weight): significant delay of tumour growth; also recorded: superior to the inhibitory effects observed with DTIC alone
